Earlier results on two compounds are cited in patent US5043107A, “Preparation small unilamellar vesicles including polyene antifungal antibiotics” (Vestar Research, Inc., priority 1989, dated 1991).

For data set [1] the following is noted: in vivo.
For data set [2] the following is noted: Tremblay et al.
The conditions of data set [3]: mammals; clinical use at therapeutic dose levels.

As to liposomal Amphotericin B, the host toxicity result in data set [1] is on record as “decreased host toxicity”.
With `C[C@@H]1[C@H](O)[C@@H](C)/C=C/C=C/C=C/C=C/C=C/C=C/C=C/[C@H](O[C@@H]2O[C@H](C)[C@@H](O)[C@H](N)[C@@H]2O)C[C@@H]2O[C@](O)(C[C@@H](O)C[C@@H](O)[C@H](O)CC[C@@H](O)C[C@@H](O)CC(=O)O[C@H]1C)C[C@H](O)[C@H]2C(=O)O` [Amphotericin B, amphotericin B], in data set [2], the “acute 50% lethal dose (LD50)” value is reported as 2.3 mg/kg. For the same compound, the toxicity result in data set [3] is “acute hemolytic crisis and eventual kidney failure”.
